The text below walks through data of patent US7662417B2, “Preservatives and protective systems” (Laboratorios Miret, S.A., priority 2002, dated 2010).

One data set in a line: toxicological studies. It counts as in vivo. Conditions: animals and humans.
For data set [1], the system named is Rhodotorula ruba CECT 1158. The data set is described as follows: standard CMI evaluation. Type of data set: cell-based. Conditions: tested at 683-8 mg/L, both products contain 21% LAE. How it is done:
(§1) A precipitate of xanthan/LAE is formed when 150 mL of a solution containing 1.3% of xanthan gum and 300 mL of a solution containing 0.3% of LAE are mixed. Then, 2.5 g of white solid are isolated by filtration.

Data set [2] concerns Citrobacter intermedium CECT 401. The data set is described as follows: standard CMI evaluation. Type of data set: cell-based. Conditions: tested at 683-8 mg/L, both products contain 21% LAE. As for the experimental part:
as §1

Data set [3] relates to Bacillus cereus ATCC 9634. The data set is described as follows: standard CMI evaluation. It counts as cell-based. Conditions: tested at 683-8 mg/L, both products contain 21% LAE. As for the experimental part: as §1
In data set [4] the test system is Salmonella typhimurium ATCC 16028. Briefly: standard CMI evaluation. Type of data set: cell-based. Conditions: tested at 683-8 mg/L, both products contain 21% LAE. As for the experimental part: as §1
In data set [5] the test system is Aspergillus niger ATCC 14604. Briefly: standard CMI evaluation. Type of data set: cell-based. To be noted: tested at 683-8 mg/L, both products contain 21% LAE. How it is done:
as §1

The subject of data set [6] is Escherichia coli ATCC 8739. The data set is described as follows: standard CMI evaluation. It counts as cell-based. Conditions: tested at 683-8 mg/L, both products contain 21% LAE. As for the experimental part:
as §1

Data set [7] has as its system Staphylococcus aureus ATCC 6538. The data set is described as follows: standard CMI evaluation. It counts as cell-based. Conditions: tested at 683-8 mg/L, both products contain 21% LAE. How it is done:
as §1

The test system of data set [8] is Candida albicans ATCC 10231. Briefly: standard CMI evaluation. It counts as cell-based. Conditions: tested at 683-8 mg/L, both products contain 21% LAE. How it is done: as §1
Data set [9] deals with Enterobacter aerogenes CECT 684. The data set is described as follows: standard CMI evaluation. To be noted: tested at 683-8 mg/L, both products contain 21% LAE. It counts as cell-based. How it is done:
as §1

Data set [10] has as its system Pseudomonas aeruginosa ATCC 9023. Briefly: standard CMI evaluation. Type of data set: cell-based. To be noted: tested at 683-8 mg/L, both products contain 21% LAE. How it is done:
as §1

Another data set can be described thus: metabolism in rats. Type of data set: in vivo.

As for `CCCCCCCCCCCC(=O)N[C@@H](CCCN=C(N)N)C(=O)OCC.Cl` [LAE, ethyl ester of the lauramide of the arginine monohydrochloride], the toxicity result in “toxicological studies” is given as “completely harmless”. For the same compound, the CMI in data set [1] is recorded as 128 mg/L; in data set [2], 128 mg/L; in [3] it was 128 mg/L; in [4] it was 128 mg/L; in [5], 170 mg/L; in data set [6] it was 128 mg/L. Besides, the CMI in data set [7] came out at 128 mg/L; in [8] it was 128 mg/L; in data set [9], 128 mg/L; in [10], 256 mg/L. Moreover, in the data set “metabolism in rats”, the absorption and metabolism entry is “fast absorption and metabolisation into naturally-occurring amino acids and the fatty acid lauric acid”.
